How the values were obtained:
human recombinant HDAC6 = target: T1, human recombinant HDAC6 (Homo sapiens, UniProt Q9UBN7); assay: HDAC6 enzyme activity inhibition test (HDAC Fluorometric Drug Discovery Kit); assay type: biochemical; conditions: for HDAC6 selectivity (fold): HDAC6 over HDAC1; for IC50: human recombinant HDAC6, same protocol as HDAC1
T1 construct: purchased Calbiochem 382180
T1 sequence (Q9UBN7 1-1215): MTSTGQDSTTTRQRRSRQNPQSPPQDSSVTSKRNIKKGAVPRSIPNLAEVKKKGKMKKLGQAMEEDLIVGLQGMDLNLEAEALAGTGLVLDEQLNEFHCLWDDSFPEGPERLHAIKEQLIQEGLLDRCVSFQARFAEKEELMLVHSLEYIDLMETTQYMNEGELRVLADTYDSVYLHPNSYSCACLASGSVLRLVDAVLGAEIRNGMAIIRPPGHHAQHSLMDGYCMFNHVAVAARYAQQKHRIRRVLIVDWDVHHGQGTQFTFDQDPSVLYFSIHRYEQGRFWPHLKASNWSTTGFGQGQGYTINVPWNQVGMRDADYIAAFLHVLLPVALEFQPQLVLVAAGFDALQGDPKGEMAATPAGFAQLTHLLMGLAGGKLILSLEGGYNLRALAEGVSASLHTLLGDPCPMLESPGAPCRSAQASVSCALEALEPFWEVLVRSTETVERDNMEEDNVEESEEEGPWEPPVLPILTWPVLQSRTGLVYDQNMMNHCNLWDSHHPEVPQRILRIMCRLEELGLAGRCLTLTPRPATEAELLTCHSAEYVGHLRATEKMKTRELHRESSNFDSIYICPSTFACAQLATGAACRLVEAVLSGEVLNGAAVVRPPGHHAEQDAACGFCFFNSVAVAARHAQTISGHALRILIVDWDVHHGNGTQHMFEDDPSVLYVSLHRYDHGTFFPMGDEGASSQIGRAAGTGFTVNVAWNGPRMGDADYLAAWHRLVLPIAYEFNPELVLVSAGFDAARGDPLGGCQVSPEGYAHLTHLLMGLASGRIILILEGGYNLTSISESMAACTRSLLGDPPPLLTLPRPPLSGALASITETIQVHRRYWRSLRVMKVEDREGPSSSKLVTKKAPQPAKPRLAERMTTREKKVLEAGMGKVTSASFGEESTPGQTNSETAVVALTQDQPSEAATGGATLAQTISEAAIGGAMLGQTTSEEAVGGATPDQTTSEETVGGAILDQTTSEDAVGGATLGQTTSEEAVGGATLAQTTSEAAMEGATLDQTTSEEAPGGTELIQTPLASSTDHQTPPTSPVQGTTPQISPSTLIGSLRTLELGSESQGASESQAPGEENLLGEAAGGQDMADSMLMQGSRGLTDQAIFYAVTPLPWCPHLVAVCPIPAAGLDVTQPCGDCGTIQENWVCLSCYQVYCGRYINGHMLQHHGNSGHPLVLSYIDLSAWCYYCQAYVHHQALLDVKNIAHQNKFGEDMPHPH
Procedure: (§1) The following experiment was conducted to confirm the HDAC6 selectivity of the compound represented by Chemical Formula I of the present invention through the HDAC1 and HDAC6 enzyme activity inhibition test.
(§2) HDAC enzyme activity was measured using HDAC Fluorometric Drug Discovery Kit (BML-AK511, 516) manufactured by Enzo Life Science. For the HDAC1 enzyme activity test, human recombinant HDAC1 (BML-SE456) was used as an enzyme source and Fluor de Lys-®-″SIRT1 (BNL-KI177) was used as a substrate. The 5-fold diluted compound was dispensed in a 96-well plate, 0.3 μg of enzyme and 10 μM substrate were added to each well and reacted at 30° C. for 60 minutes, and Fluor de Lys® Developer II(BML-KI176) was added and reacted for 30 minutes to complete the reaction. Then, the fluorescence value (Ex 360, Em 460) was measured using a multiplate reader (Flexstation 3, Molecular Device). The HDAC6 enzyme was tested using the same protocol as the HDAC1 enzyme activity test method employing human recombinant HDAC6 (382180) from Calbiochem. For the final result, each […] value was calculated using the GraphPad Prism 4.0 program.

human recombinant HDAC1 = target: T2, human recombinant HDAC1 (Homo sapiens, UniProt Q13547); assay: HDAC1 enzyme activity inhibition test (HDAC Fluorometric Drug Discovery Kit); assay type: biochemical; conditions: 30° C., 60 minutes, 10 μM substrate
T2 construct: purchased Enzo Life Science BML-SE456
T2 sequence (Q13547 whole entry): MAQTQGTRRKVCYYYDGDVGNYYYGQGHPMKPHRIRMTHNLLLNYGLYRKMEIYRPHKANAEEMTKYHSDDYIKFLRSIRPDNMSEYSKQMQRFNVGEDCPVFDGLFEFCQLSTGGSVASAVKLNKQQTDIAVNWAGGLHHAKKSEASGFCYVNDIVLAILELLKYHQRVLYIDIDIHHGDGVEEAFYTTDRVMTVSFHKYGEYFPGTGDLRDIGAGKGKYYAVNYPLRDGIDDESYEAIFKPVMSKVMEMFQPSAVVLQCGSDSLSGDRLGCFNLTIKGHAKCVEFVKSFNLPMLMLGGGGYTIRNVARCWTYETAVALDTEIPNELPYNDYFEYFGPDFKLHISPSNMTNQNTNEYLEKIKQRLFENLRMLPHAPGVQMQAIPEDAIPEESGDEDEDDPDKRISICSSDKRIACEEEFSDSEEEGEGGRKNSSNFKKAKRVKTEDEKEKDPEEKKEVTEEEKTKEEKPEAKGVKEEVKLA
Procedure: as §1, §2

Row | HDAC6 selectivity (fold) (human recombinant HDAC6) | IC50 (human recombinant HDAC6) [µM] | IC50 (human recombinant HDAC1) [µM] | SMILES
1 | 652 | 0.0767 | > 50 | O=c1oc(-c2cccc(N3CCN(C4COC4)CC3)c2)nn1Cc1ccc(-c2nnc(C(F)F)o2)cn1 [Compound 40, 3-[[5-[5-(difluoromethyl)-1,3,4-oxadiazol-2-yl]-2-pyridyl]methyl]-5-[3-[4-(oxetane-3-yl)piperazin-1-yl]phenyl]-1,3,4-oxadiazol-2-one]
2 | 909 | 0.055 | > 50 | CN1CCC(c2cccc(-c3nn(Cc4ccc(-c5nnc(C(F)F)o5)cn4)c(=O)s3)c2F)CC1 [Compound 41, 3-[[5-[5-(difluoromethyl)-1,3,4-oxadiazol-2-yl]-2-pyridyl]methyl]-5-[2-fluoro-3-(1-methyl-4-piperidyl)phenyl]-1,3,4-thiadiazol-2-one]
3 | 975 | 0.0513 | > 50 | O=c1oc(-c2ccc3ccccc3n2)nn1Cc1ccc(-c2nnc(C(F)F)o2)cn1 [Compound 42, 3-[[5-[5-(difluoromethyl)-1,3,4-oxadiazol-2-yl]-2-pyridyl]methyl]-5-(2-quinolyl)-1,3,4-oxadiazol-2-one]
4 | 359 | 0.139 | > 50 | O=c1sc(-c2ccccc2)nn1Cc1ccc(-c2nnc(C(F)F)o2)cn1 [Compound 43, 3-[[5-[5-(difluoromethyl)-1,3,4-oxadiazol-2-yl]-2-pyridyl]methyl]-5-phenyl-1,3,4-thiadiazol-2-one]
5 | 543 | 0.092 | > 50 | FC(F)c1nnc(-c2ccc(Cn3nc(-c4ccccc4)oc3=S)nc2)o1 [Compound 45, 3-((5-(5-(difluoromethyl)-1,3,4-oxadiazol-2-yl)pyridin-2-yl)methyl)-5-phenyl-1,3,4-oxadiazol-2(3H)-thione]
6 | 1171 | 0.0427 | > 50 | FC(F)c1nnc(-c2ccc(Cn3nc(-c4ccccn4)oc3=S)nc2)o1 [Compound 46, 3-[[5-[5-(difluoromethyl)-1,3,4-oxadiazol-2-yl]-2-pyridyl]methyl]-5-(2-pyridyl)-1,3,4-oxadiazol-2-thione]
7 | 588 | 0.0851 | > 50 | FC(F)c1nnc(-c2ccc(Cn3nc(-c4cccs4)oc3=S)nc2)o1 [Compound 50, 3-[ [5-[5-(difluoromethyl) -1,3,4-oxadiazol-2-yl] -2-pyridyl]methyl] -5-(2-thienyl)-1,3,4-oxadiazol-2-thione]
8 | 473 | 0.106 | > 50 | FC(F)c1nnc(-c2ccc(Cn3nc(-c4cccnc4)oc3=S)nc2)o1 [Compound 52, 3-[[5-[5-(difluoromethyl)-1,3,4-oxadiazol-2-yl]-2-pyridyl]methyl]-5-(3-pyridyl)-1,3,4-oxadiazol-2-thione]
9 | 634 | 0.0789 | > 50 | CC(C)N1CCC(c2ccc(-c3nn(Cc4ccc(-c5nnc(C(F)F)o5)cn4)c(=O)s3)cc2)CC1 [Compound 55, 3-[[5-[5-(difluoromethyl)-1,3,4-oxadiazol-2-yl]-2-pyridyl]methyl]-5-[4-(1-isopropyl-4-piperidyl)phenyl]-1,3,4-thiadiazol-2-one]
10 | 422 | 0.118 | > 50 | O=c1sc(-c2ccc(C3CCN(C4COC4)CC3)cc2)nn1Cc1ccc(-c2nnc(C(F)F)o2)cn1 [Compound 56, 3-[[5-[5-(difluoromethyl)-1,3,4-oxadiazol-2-yl]-2-pyridyl]methyl]-5-[4-[1-(oxetane-3-yl)-4-piperidyl]phenyl]-1,3,4-thiadiazol-2-one]
11 | 643 | 0.0778 | > 50 | O=c1sc(-c2cccc(C3CCN(C4COC4)CC3)c2F)nn1Cc1ccc(-c2nnc(C(F)F)o2)cn1 [Compound 58, 3-[[5-[5-(difluoromethyl)-1,3,4-oxadiazol-2-yl]-2-pyridyl]methyl]-5-[2-fluoro-3-[1-(oxetane-3-yl)-4-piperidyl]phenyl]-1,3,4-thiadiazol-2-one]

Further lines, the compound ahead of its results:

Row | SMILES | HDAC6 selectivity (fold) (human recombinant HDAC6) | IC50 (human recombinant HDAC6) [µM] | IC50 (human recombinant HDAC1) [µM]
12 | O=c1sc(-c2cccs2)nn1Cc1ccc(-c2nnc(C(F)F)o2)cn1 [Compound 44, 3-[[5-[5-(difluoromethyl)-1,3,4-oxadiazol-2-yl]2-pyridyl]methyl]-5-(2-thienyl)-1,3,4-thiadiazol-2-one] | 704 | 0.071 | > 50
13 | Fc1cc(-c2nnc(C(F)F)o2)cnc1Cn1nc(-c2ccccn2)oc1=S [Compound 47, 3-[[5-[5-(difluoromethyl)-1,3,4-oxadiazol-2-yl]-3-fluoro-2-pyridyl]methyl]-5-(2-pyridyl)-1,3,4-oxadiazol-2-thione] | 1548 | 0.0323 | > 50
14 | Fc1cccc(-c2nn(Cc3ncc(-c4nnc(C(F)F)o4)cc3F)c(=S)o2)c1 [Compound 48, 3-[[5-[5-(difluoromethyl)-1,3,4-oxadiazol-2-yl]-3-fluoro-2-pyridyl]methyl]-5-(3-fluorophenyl)-1,3,4-oxadiazol-2-thione] | 437 | 0.114 | > 50
15 | O=c1sc(-c2ccccn2)nn1Cc1ccc(-c2nnc(C(F)F)o2)cn1 [Compound 49, 3-[[5-[5-(difluoromethyl)-1,3,4-oxadiazol-2-yl]-2-pyridyl]methyl]-5-(2-pyridyl)-1,3,4-thiadiazol-2-one] | 656 | 0.0762 | > 50
16 | Fc1cc(-c2nnc(C(F)F)o2)cnc1Cn1nc(-c2cccs2)oc1=S [Compound 51, 3-[[5-[5-(difluoromethyl)-1,3,4-oxadiazol-2-yl]-3-fluoro-2-pyridyl]methyl]-5-(2-thienyl)-1,3,4-oxadiazol-2-thione] | 601 | 0.0832 | > 50
17 | Fc1cc(-c2nnc(C(F)F)o2)cnc1Cn1nc(-c2cnccn2)oc1=S [Compound 53, 3-[[5-[5-(difluoromethyl)-1,3,4-oxadiazol-2-yl]-3-fluoro-2-pyridyl]methyl]-5-pyrazine-2-yl-1,3,4-oxadiazol-2-thione] | 560 | 0.0893 | > 50
18 | O=c1sc(-c2ccccc2F)nn1Cc1ccc(-c2nnc(C(F)F)o2)cn1 [Compound 54, 3-[[5-[5-(difluoromethyl)-1,3,4-oxadiazol-2-yl]-2-pyridyl]methyl]-5-(2-fluorophenyl)-1,3,4-thiadiazol-2-one] | 444 | 0.113 | > 50
19 | CC(C)N1CCC(c2cccc(-c3nn(Cc4ccc(-c5nnc(C(F)F)o5)cn4)c(=O)s3)c2F)CC1 [Compound 57, 3-[[5-[5-(difluoromethyl)-1,3,4-oxadiazol-2-yl]-2-pyridyl]methyl]-5-[2-fluoro-3-(1-isopropyl-4-piperidyl)phenyl]-1,3,4-thiadiazol-2-one] | 954 | 0.0524 | > 50
20 | Cc1nc(-c2nn(Cc3ccc(-c4nnc(C(F)F)o4)cn3)c(=S)o2)cs1 [Compound 59, 3-[[5-[5-(difluoromethyl)-1,3,4-oxadiazol-2-yl]-2-pyridyl]methyl]-5-(2-methylthiazol-4-yl)-1,3,4-oxadiazol-2-thione] | 669 | 0.0747 | > 50

From patent US20260327214A1, “1,3,4-OXADIAZOLE DERIVATIVE COMPOUNDS AS HISTONE DEACETYLASE 6 INHIBITOR, AND USES THEREOF” (CHONG KUN DANG PHARMACEUTICAL CORP., priority 2022, published 2026)
